Literature values as cited in patent US20090226374A1, “ANAPHYLATOXINS FOR DETECTING CLINICAL CONDITIONS” (Health Aide, Inc., priority 2003, published 2009).
Read-outs that look alike come from different tables or passages of the source. Marks after values point to notes of the source that are not given here. Where no end group is shown, it is not given here. [ ]: non-standard residue; d: D form. The star is where a group is joined. Fmoc = O=C(OCC1c2ccccc2-c2ccccc21)*; Ahx = NCCCCCC(=O)O

Experiments:
guinea pig ileum = settings: for Relative Act. %: natural human C3a (1-77) = 100; for Relative Act. % / Relative molar activity (%): guinea pig ileum contraction; for Relative molar activity (%): pentapeptide L-G-L-A-R (C3a 73-77) = 100
[1] = assay not given
[2] = natural factor C3a (1-77) = 100
[3] = natural C3a of each species; human C3a = 100
guinea pig platelet = guinea pig platelet aggregation

A-G-L-A-R [Peptide 7]
Relative Act. % (guinea pig ileum): <0.001% | Relative molar activity (%) (guinea pig ileum): 20%

Ahx-Y-A-S-K-L-G-L-A-R ([Ahx]YASKLGLAR) [Peptide C2]
Potency relative to C3a (57-77), % ([1]; Table 1E): 13%

Ahx-Y-S-H-K-G-M-L-L-G-R ([Ahx]YSHKGMLLGR) [Peptide C8]
Potency relative to C3a (57-77), % ([1]; Table 1E): 0.4%

C3a (1-77): Natural human C3a anaphylatoxin (1-77), the natural factor
Relative molar activity (%) [2]: 100% | Relative Act. % (guinea pig ileum): 100% | Potency % [3]: 100%

F-G-L-A-R [Peptide 3]
Relative Act. % (guinea pig ileum): 1.1% | Relative molar activity (%) (guinea pig ileum): 140%

Fmoc-A-A-A-R-L-G-L-A-R (Fmoc-AAARLGLAR) [Peptide D1]
Potency relative to C3a (57-77), % ([1]; Table 1F): 66%

Fmoc-A-A-R-A-L-G-L-A-R (Fmoc-AARALGLAR) [Peptide D2]
Potency relative to C3a (57-77), % ([1]; Table 1F): 41%

Fmoc-A-R-A-A-L-G-L-A-R (Fmoc-ARAALGLAR) [Peptide D3]
Potency relative to C3a (57-77), % ([1]; Table 1F): 37%

Fmoc-Ahx-Y-A-S-K-L-G-L-A-R ({Fmoc-Ahx}-YASKLGLAR) [Peptide C3]
Potency relative to C3a (57-77), % ([1]; Table 1E): 22%

Fmoc-Ahx-Y-R-A-S-K-L-G-L-A-R ({Fmoc-Ahx}-YRASKLGLAR) [Peptide C5]
Potency relative to C3a (57-77), % ([1]; Table 1E): 112% | Potency relative to C3a (57-77), % ([1]; Table 1F): 112%

Fmoc-Ahx-Y-S-H-K-G-M-L-L-G-R ({Fmoc-Ahx}-YSHKGMLLGR) [Peptide C9]
Potency relative to C3a (57-77), % ([1]; Table 1E): 0.8%

Fmoc-G-G-Y-R-A-S-K-L-G-L-A-R (Fmoc-GGYRASKLGLAR) [Peptide D8]
Potency relative to C3a (57-77), % ([1]; Table 1F): 227%

Fmoc-I-R-R--R-Y-A-S-K-L-G-L-A-R (Fmoc-IRRRYASKLGLAR) [Peptide B18]
Potency relative to C3a (57-77), % (guinea pig platelet): 50%

Fmoc-K-K-Y-R-A-S-K-L-G-L-A-R (Fmoc-KKYRASKLGLAR) [Peptide D7]
Potency relative to C3a (57-77), % ([1]; Table 1F): 279%

Fmoc-R-A-A-A-L-G-L-A-R (Fmoc-RAAALGLAR) [Peptide D4]
Potency relative to C3a (57-77), % ([1]; Table 1F): 79%

Fmoc-R-A-A-R-L-G-L-A-R (Fmoc-RAARLGLAR) [Peptide D5]
Potency relative to C3a (57-77), % ([1]; Table 1F): 61%

Fmoc-R-R-R-Y-A-S-K-L-G-L-A-R (Fmoc-RRRYASKLGLAR) [Peptide B17]
Potency relative to C3a (57-77), % (guinea pig platelet): 261%

Fmoc-R-R-Y-R-A-S-K-L-G-L-A-R (Fmoc-RRYRASKLGLAR) [Peptide D6]
Potency relative to C3a (57-77), % ([1]; Table 1F): 176%

Fmoc-W-W-R-R-R-Y-A-S-K-L-G-L-A-R (Fmoc-WWRRRYASKLGLAR) [Peptide B19]
Potency relative to C3a (57-77), % (guinea pig platelet): 53%

Fmoc-Y-R-A-S-K-L-G-L-A-R (Fmoc-YRASKLGLAR) [Peptide B4]
Potency relative to C3a (57-77), % (guinea pig platelet): 121%

FmocW-R-R-R-Y-A-S-K-L-G-L-A-R (Fmoc-WRRRYASKLGLAR) [Peptide B20]
Potency relative to C3a (57-77), % (guinea pig platelet): 70%

G-I-G-G-Y-R-K-S-A-L-G-L-A-R (GIGGYRKSALGLAR) [Peptide B10]
Potency relative to C3a (57-77), % (guinea pig platelet): 41%

H-Ala-Ser-His-Leu-Gly-Leu-Ala-Arg-OH (H-ASHLGLAR-OH) [C3a-(70-77)]
Relative molar activity (%) [2]: 2.0%

H-Arg-Gln-His-Ala-Arg-Ala-Ser-His-Leu-Gly-Leu-Ala-Arg-OH (H-RQHARASHLGLAR-OH) [C3a-(65-77)]
Relative molar activity (%) [2]: 2.5%

H-Cys-Asn-Tyr-Ile-Thr-Glu-Leu-Arg-Arg-Gln-His-Ala-Arg-Ala-Ser-His-Leu-Gly-Leu-Ala-Arg-OH (H-CNYITELRRQHARASHLGLAR-OH) [C3a-(57-77)]
Relative molar activity (%) [2]: >20* %

H-Trp-Trp-Gly-Lys-Lys-Tyr-Arg-Ala-Ser-Lys-Leu-Gly-Leu-Ala-Arg-OH (H-WWGKKYRASKLGLAR-OH) [Peptide E7]
Relative molar activity (%) [2]: >100** %

I-G-G-G-Y-R-K-S-A-L-G-L-A-R (IGGGYRKSALGLAR) [Peptide B11]
Potency relative to C3a (57-77), % (guinea pig platelet): 16%

I-G-L-A-R [Peptide 4]
Relative Act. % (guinea pig ileum): 0.8% | Relative molar activity (%) (guinea pig ileum): 100%

I-I-G-G-Y-R-A-S-K-L-G-L-A-R (IIGGYRASKLGLAR) [Peptide B8]
Potency relative to C3a (57-77), % (guinea pig platelet): 50%

I-I-G-G-Y-R-K-S-A-L-G-L-A-R (IIGGYRKSALGLAR) [Peptide B9]
Potency relative to C3a (57-77), % (guinea pig platelet): 37%

I-R-R-R-Y-A-S-K-L-G-L-A-R (IRRRYASKLGLAR) [Peptide B15]
Potency relative to C3a (57-77), % (guinea pig platelet): 99%

L-A-L-A-R [Peptide 8]
Relative Act. % (guinea pig ileum): 0.59% | Relative molar activity (%) (guinea pig ileum): 270%

L-E-L-A-R [Peptide 13]
Relative Act. % (guinea pig ileum): 2.0% | Relative molar activity (%) (guinea pig ileum): <2.4%

L-G-A-A-R [Peptide Code 12]
Relative molar activity (%) (guinea pig ileum): <1.4%

L-G-F-A-R [Peptide 16]
Relative Act. % (guinea pig ileum): 1.0% | Relative molar activity (%) (guinea pig ileum): <1.5%

L-G-I-A-R [Peptide 14]
Relative Act. % (guinea pig ileum): 0.8% | Relative molar activity (%) (guinea pig ileum): 10%

L-G-L-A-R (LGLAR) [Peptide Code 5]
Potency relative to C3a (57-77), % (guinea pig ileum; asterisk: based on guinea pig ileal assay): 0.2* % | Relative Act. % (guinea pig ileum): 5.9% | Relative molar activity (%) (guinea pig ileum): 100%

L-G-L-E-R [Peptide 23]
Relative molar activity (%) (guinea pig ileum): <2.6%

L-G-L-G-R [Peptide 22]
Relative molar activity (%) (guinea pig ileum): <5.8%

L-G-L-P-R [Peptide 19]
Relative molar activity (%) (guinea pig ileum): 3.5%

L-G-L-Q-R [Peptide 20]
Relative molar activity (%) (guinea pig ileum): 2.8%

L-G-L-S-R [Peptide 21]
Relative molar activity (%) (guinea pig ileum): 0.7%

L-G-M-A-R [Peptide 15]
Relative Act. % (guinea pig ileum): 0.25% | Relative molar activity (%) (guinea pig ileum): 2.1%

L-G-V-A-R [Peptide 17]
Relative Act. % (guinea pig ileum): <0.005% | Relative molar activity (%) (guinea pig ileum): <1.1%

L-L-L-A-R [Peptide 11]
Relative Act. % (guinea pig ileum): 0.023% | Relative molar activity (%) (guinea pig ileum): 10%

L-Q-L-A-R [Peptide 12]
Relative Act. % (guinea pig ileum): <0.003% | Relative molar activity (%) (guinea pig ileum): <5.5%

L-S-L-A-R [Peptide 9]
Relative Act. % (guinea pig ileum): 2.0% | Relative molar activity (%) (guinea pig ileum): 55%

L-V-L-A-R [Peptide 10]
Relative Act. % (guinea pig ileum): 1.2% | Relative molar activity (%) (guinea pig ileum): 10%

M-G-L-A-R [Peptide 6]
Relative Act. % (guinea pig ileum): 0.005% | Relative molar activity (%) (guinea pig ileum): 50%

R-R-R-Y-A-S-K-L-G-L-A-R (RRRYASKLGLAR) [Peptide B13]
Potency relative to C3a (57-77), % (guinea pig platelet): 50%

R-R-Y-A-S-K-L-G-L-A-R (RRYASKLGLAR) [Peptide B12]
Potency relative to C3a (57-77), % (guinea pig platelet): 18%

R-Y-A-S-K-L-G-L-A-R (RYASKLGLAR) [Peptide B2]
Potency relative to C3a (57-77), % (guinea pig platelet): 7.0%

V-G-L-A-R [Peptide 5]
Relative Act. % (guinea pig ileum): 0.2% | Relative molar activity (%) (guinea pig ileum): 90%

W-Ahx-Y-A-S-K-L-G-L-A-R (W[Ahx]YASKLGLAR) [Peptide C4]
Potency relative to C3a (57-77), % ([1]; Table 1E): 22%

W-Ahx-Y-S-H-K-G-M-L-L-G-R (W[Ahx]YSHKGMLLGR) [Peptide C10]
Potency relative to C3a (57-77), % ([1]; Table 1E): 1.2%

W-G-G-Y-R-A-S-K-L-G-L-A-R (WGGYRASKLGLAR) [Peptide B5]
Potency relative to C3a (57-77), % (guinea pig platelet): 99%

W-I-G-G-Y-R-A-S-K-L-G-L-A-R (WIGGYRASKLGLAR) [Peptide B7]
Potency relative to C3a (57-77), % (guinea pig platelet): 118%

W-R-R-R-Y-A-S-K-L-G-L-A-R (WRRRYASKLGLAR) [Peptide B14]
Potency relative to C3a (57-77), % (guinea pig platelet): 66%

W-W-Ahx-Y-R-A-S-K-L-G-L-A-R (WW[Ahx]YRASKLGLAR) [Peptide C6]
Potency relative to C3a (57-77), % ([1]; Table 1E): 603%

W-W-G-G-Y-R-A-S-A-L-G-L-A-R (WWGGYRASALGLAR) [Peptide D10]
Potency relative to C3a (57-77), % ([1]; Table 1F): 181%

W-W-G-G-Y-R-A-S-K-L-G-L-A-R (WWGGYRASKLGLAR) [Peptide B6]
Potency relative to C3a (57-77), % (guinea pig platelet): 259%

W-W-G-G-Y-R-K-S-A-L-G-L-A-R (WWGGYRKSALGLAR) [Peptide D11]
Potency relative to C3a (57-77), % ([1]; Table 1F): 259%

W-W-G-G-Y-R-P-S-A-L-G-L-A-R (WWGGYRPSALGLAR) [Peptide D12]
Potency relative to C3a (57-77), % ([1]; Table 1F): 252%

W-W-G-G-Y-R-a-S-A-L-G-L-A-R (WWGGYR[dA]SALGLAR) [Peptide D13]
Potency relative to C3a (57-77), % ([1]; Table 1F): 118%

W-W-R-R-R-Y-A-S-K-L-G-L-A-R (WWRRRYASKLGLAR) [Peptide B16]
Potency relative to C3a (57-77), % (guinea pig platelet): 296%

Y-A-S-K-L-G-L-A-R (YASKLGLAR) [Peptide C1]
Potency relative to C3a (57-77), % ([1]; Table 1E): 3.4%

Y-G-L-A-R [Peptide 2]
Relative Act. % (guinea pig ileum): 2.3% | Relative molar activity (%) (guinea pig ileum): 160%

Y-R-A-S-K-L-G-L-A-R (YRASKLGLAR) [Peptide B3]
Potency relative to C3a (57-77), % (guinea pig platelet): 55%

Y-S-H-K-G-M-L-L-G-R (YSHKGMLLGR) [Peptide C7]
Potency relative to C3a (57-77), % ([1]; Table 1E): 0.5%
